For one test, the system named is S.aureus Villaluz. The test can be described thus: In vitro antibacterial activity (MIC). Format: cell-based. Conditions: Staphylococcus aureus. Here is the method:
(§1) The compounds of this invention have antibacterial activity against Gram-positive and Gram-negative organisms. Minimum inhibitory concentrations (MIC's) ranged from 0.4 to >200 μg/ml in in vitro testing.

The next test relates to S.aureus SK 23390. The test can be described thus: In vitro antibacterial activity (MIC). Format: cell-based. To be noted: Staphylococcus aureus, SK23390; S.aureus SK 23390, in vitro; read-out: MIC. Here is the method: as §1
In another test the test system is E. coli HH 33779. As to the kind of experiment: In vitro antibacterial activity (MIC). To be noted: Escherichia coli, HH33779; E. coli HH 33779, in vitro; read-out: MIC. Format: cell-based. The protocol: as §1
The test system of test [1] is Entero. aerog. ATCC 13048. As to the kind of experiment: In vitro antibacterial activity (MIC). Format: cell-based. Here is the method:
as §1

Another test has as its system Strep. faecalis HH 34358. The test can be described thus: In vitro antibacterial activity (MIC). Format: cell-based. Conditions: Enterococcus faecalis, HH34358; Strep. faecalis HH 34358, in vitro. Here is the method: as §1
The next test deals with Kleb. pneumo. SK 1200. The test can be described thus: In vitro antibacterial activity (MIC). Format: cell-based. The protocol:
as §1

The test system of another test is E.coli SK 12140. As to the kind of experiment: In vitro antibacterial activity (MIC). Format: cell-based. Conditions: Escherichia coli, SK12140. Here is the method:
as §1

For the next test, the system named is S.aureus HH 127. As to the kind of experiment: In vitro antibacterial activity (MIC). Format: cell-based. Conditions: Staphylococcus aureus, HH127. Here is the method: as §1
In a further test the test system is Shig. paradys HH 112. The test can be described thus: In vitro antibacterial activity (MIC). Format: cell-based. Conditions: Shig. paradys HH 112, in vitro; read-out: MIC. Here is the method: as §1
In a further test the test system is Proteus morgani 179. As to the kind of experiment: In vitro antibacterial activity (MIC). Format: cell-based. To be noted: Proteus morgani 179, in vitro; read-out: MIC. The protocol: as §1
For another test, the system named is Kleb. pneumo. SK 4200. As to the kind of experiment: In vitro antibacterial activity (MIC). To be noted: Kleb. pneumo. SK 4200, in vitro; read-out: MIC. Format: cell-based. Here is the method: as §1
The next test relates to Klebs.pneumo. 4200. The test can be described thus: In vivo activity (ED50) against Klebs.pneumo. 4200. To be noted: read-out: ED50.
The test system of a further test is E.coli 12140. As to the kind of experiment: In vivo activity (ED50) against E.coli 12140.
The mark [2] stands for this setting: Entero. aerog. ATCC 13048, in vitro, read-out: MIC.
Setting [3] is: Kleb. pneumo. SK 1200, in vitro, read-out: MIC.
Where [4] appears, read: E.coli SK 12140, in vitro, read-out: MIC.
[5] abbreviates: S.aureus HH 127, in vitro, read-out: MIC.
Setting [6] is: Escherichia coli, 12140, po, E.coli 12140, p.o.
[7] abbreviates: Escherichia coli, 12140, sc, E.coli 12140, s.c.

Each structure is given as a SMILES string. Values after ≈ are worked out from the molar mass of the structure shown. Like-named read-outs stand apart in the source and are kept apart here.

For the compound `CC1=C(C(=O)O)N2C(=O)C(NC(=O)C(N)c3ccc(OCC(=O)O)cc3)C2SC1` (racemic) [*08016, 7-[DL-α-amino-α-(4'-carboxymethoxyphenyl)acetamido]-3-desacetoxycephalosporanic acid], the minimal inhibitory concentration (MIC) (commonly the smallest concentration in the dilution series that meets the test's criterion for growth inhibition) is > 200 mg/L in the test with S.aureus Villaluz; 50 mg/L (≈ 119 µM) in the test with S.aureus SK 23390; 50 mg/L (≈ 119 µM) in the test with E. coli HH 33779; 100 mg/L (≈ 237 µM) in test [1] (setting [2]); > 200 mg/L against Strep. faecalis HH 34358; 25 mg/L (≈ 59.3 µM) with Kleb. pneumo. SK 1200 (setting [3]). Moreover, the MIC with E.coli SK 12140 (setting [4]), in the test on S.aureus HH 127 (setting [5]) and in the test on Shig. paradys HH 112 was 50 mg/L (≈ 119 µM) each time.
As to `N[C@@H](C(=O)NC1C(=O)N2C(C(=O)O)=C(CSc3c[nH]nn3)CSC12)c1ccc(OCC(=O)O)cc1` (stereo partly drawn) [Compound No. 03326, 7-[D-α-Amino-α-(4'-carboxymethoxyphenyl)acetamido]-3-(1,2,3-triazol-4-ylthiomethyl)-3-cephem-4-carboxylic acid], the minimum inhibitory concentration (MIC) is 200 mg/L (≈ 384 µM) in the test with S.aureus Villaluz; 100 mg/L (≈ 192 µM) with S.aureus SK 23390; 200 mg/L (≈ 384 µM) with Proteus morgani 179; 25 mg/L (≈ 48 µM) in the test on E. coli HH 33779; 25 mg/L (≈ 48 µM) in test [1] (setting [2]); 200 mg/L (≈ 384 µM) in the test with Strep. faecalis HH 34358. The MIC worked out at 6.3 mg/L (≈ 12.1 µM) with Kleb. pneumo. SK 4200, 3.1 mg/L (≈ 5.96 µM) in the test with Kleb. pneumo. SK 1200 (setting [3]), 6.3 mg/L (≈ 12.1 µM) with E.coli SK 12140 (setting [4]) and 12.5 mg/L (≈ 24 µM) with S.aureus HH 127 (setting [5]). Moreover, the median effective dose (ED50) (usually the midpoint of the dose-response relation) in the test on Klebs.pneumo. 4200 (po, Klebs.pneumo. 4200, p.o.) turned out to be 17.7 mg/kg; with Klebs.pneumo. 4200 (sc, Klebs.pneumo. 4200, s.c.), 4.6 mg/kg; with E.coli 12140 (setting [6]), 25 mg/kg; with E.coli 12140 (setting [7]), 8.4 mg/kg.
Regarding `Cc1nnc(SCC2=C(C(=O)O)N3C(=O)C(NC(=O)[C@H](N)c4ccc(SCC(=O)O)cc4)C3SC2)s1` (stereo partly drawn) [Compound No. 03616, 7-[D-α-Amino-α-(4'-carboxymethylthiophenyl)acetamido]-3-(5-methyl-1,3,4-thiadiazol-2-ylthiomethyl)-3-cephem-4-carboxylic acid], the MIC stood at 25 mg/L (≈ 44 µM) against S.aureus Villaluz; 6.3 mg/L (≈ 11.1 µM) in the test on S.aureus SK 23390; 200 mg/L (≈ 352 µM) in the test with Proteus morgani 179; 12.5 mg/L (≈ 22 µM) in the test with E. coli HH 33779; 25 mg/L (≈ 44 µM) in [1] (setting [2]); 100 mg/L (≈ 176 µM) in the test on Strep. faecalis HH 34358. In addition, the MIC in the test on Kleb. pneumo. SK 4200 came to 1.6 mg/L (≈ 2.82 µM); in the test with Kleb. pneumo. SK 1200 (setting [3]), 3.1 mg/L (≈ 5.46 µM); in the test on E.coli SK 12140 (setting [4]) it was 6.3 mg/L (≈ 11.1 µM); with S.aureus HH 127 (setting [5]) it was 6.3 mg/L (≈ 11.1 µM). The ED50 in the test on Klebs.pneumo. 4200 (po, Klebs.pneumo. 4200, p.o.) is 16 mg/kg; with Klebs.pneumo. 4200 (sc, Klebs.pneumo. 4200, s.c.), 11.5 mg/kg; in the test on E.coli 12140 (setting [6]) it was 14.5 mg/kg; in the test with E.coli 12140 (setting [7]), 6.2 mg/kg.
In the case of `Cn1nnnc1SCC1=C(C(=O)O)N2C(=O)C(NC(=O)[C@H](N)c3ccc(OCC(N)=O)cc3)C2SC1` (stereo partly drawn) [Compound No. 32626, 7-[D-α-Amino-α-(4'-carbamylmethoxyphenyl)acetamido]-3-(1-methyl-1,2,3,4-tetrazol-5-ylthiomethyl)-3-cephem-4-carboxylic acid], the MIC in the test on S.aureus Villaluz stood at 50 mg/L (≈ 93.5 µM); in the test on S.aureus SK 23390 it was 6.3 mg/L (≈ 11.8 µM); with Proteus morgani 179 it was 100 mg/L (≈ 187 µM); with E. coli HH 33779 it was 25 mg/L (≈ 46.8 µM); in [1] it was 12.5 mg/L (≈ 23.4 µM); in the test with Strep. faecalis HH 34358 it was 200 mg/L (≈ 374 µM). Also, the MIC was 6.3 mg/L (≈ 11.8 µM) in the test with Kleb. pneumo. SK 4200, 12.5 mg/L (≈ 23.4 µM) against Kleb. pneumo. SK 1200, 12.5 mg/L (≈ 23.4 µM) in the test on E.coli SK 12140 and 12.5 mg/L (≈ 23.4 µM) with S.aureus HH 127. Also, the ED50 in the test with Klebs.pneumo. 4200 (po, Klebs.pneumo. 4200, p.o.) was > 50 mg/kg; in the test on Klebs.pneumo. 4200 (sc, Klebs.pneumo. 4200, s.c.), 15.5 mg/kg; in the test on E.coli 12140 (setting [6]), > 50 mg/kg; in the test on E.coli 12140 (setting [7]), 8.7 mg/kg.
Regarding `Cc1nnc(SCC2=C(C(=O)O)N3C(=O)C(NC(=O)[C@H](N)c4ccc(NCC(=O)O)cc4)C3SC2)s1` (stereo partly drawn) [Compound No. 48536, 7-[D-α-Amino-α-(4'-carboxymethylaminophenyl)acetamido]-3-(5-methyl-1,3,4-thiadiazol-2-ylthiomethyl)-3-cephem-4-carboxylic acid], the MIC was 100 mg/L (≈ 182 µM) against S.aureus Villaluz; 12.5 mg/L (≈ 22.7 µM) with S.aureus SK 23390; 2.5 mg/L (≈ 4.54 µM) with Proteus morgani 179; 6.3 mg/L (≈ 11.4 µM) with E. coli HH 33779; 12.5 mg/L (≈ 22.7 µM) in test [1] (setting [2]); 100 mg/L (≈ 182 µM) in the test with Strep. faecalis HH 34358. The MIC with Kleb. pneumo. SK 4200 was determined as 1.6 mg/L (≈ 2.91 µM); with Kleb. pneumo. SK 1200 (setting [3]) it was 3.1 mg/L (≈ 5.63 µM); in the test on E.coli SK 12140 (setting [4]), 3.1 mg/L (≈ 5.63 µM); in the test on S.aureus HH 127 (setting [5]), 12.5 mg/L (≈ 22.7 µM). For the same compound, the ED50 turned out to be 12.5 mg/kg in the test with Klebs.pneumo. 4200 (po, Klebs.pneumo. 4200, p.o.); 7.8 mg/kg with Klebs.pneumo. 4200 (sc, Klebs.pneumo. 4200, s.c.); 6.4 mg/kg with E.coli 12140 (setting [6]); 2 mg/kg with E.coli 12140 (setting [7]).

For the origin of these results see patent publication US4022895A, “Substituted phenylglycylcephalosporins” (SmithKline Corporation, priority 1975, dated 1977).
